Counter-ions that a name gives are not always drawn.
Key:
[1] = tested on: F4/80+ macrophages (CD38, CD206, LSD1p); assay: Immunofluorescence assay of TME macrophage populations (M1/M2 profiles); type: in vivo, mouse
Description: FIG. 4 is a graphical representation showing that dual epigenetic-immunotherapy re-educates and re-programs innate macrophage repertoire. A. Immunofluorescence microscopy was performed on F4/80+MØ cells fixed and probed with a M1 panel consisting of anti-CD38 and ? odies and DAPI. […] B. Immunofluorescence microscopy was performed on F4/80+MØ cells fixed and probed with a M2 panel consisting of anti-CD206 and anti LSD1p antibodies and DAPI.
The effect of these treatment modalities was also investigated on TME macrophage populations by immunofluorescence assay (IFA). In particular, the M1 (CD38 expression) and M2 profiles (CD206 expression) were examined, along with LSD1p expression.
(§1) A total of 2×10^5 cells were injected per mouse into mammary gland in 50 μL of phosphate buffered saline (PBS). Treatments were started on mice after 15 days post-inoculation of 4T1 cells. […] Tumors were measured using calipers and the tumor volumes (mm3) were calculated using the formula (length×width2)/2. ? arvested cells from primary tumors where then cytospun ? -treated with poly-1-lysine and fixed then stored in PBS for IFA Microscopy Analysis. […] Digital images were analysed using ImageJ software (ImageJ, NIH, Bethesda, Md., USA) to determine the either the Total Nuclear Fluorescent Intensity (TNFI), the Total Cytoplasmic Fluorescent Intensity (TCFI) or total Fluorescent Intensity (TFI).

EOMES, TBET and Ki67 = assay: Immunofluorescence of T-cell exhaustion signature in CD8+ T-cells isolated from TME; type: in vivo, mouse; details: % change relative to control
Description: FIG. 5 is a graphical representation showing that dual epigenetic-immunotherapy re-educates and re-programs the T-cell repertoire. A. Cells stimulated with PMA/ionomycin for 4 hours in the presence of Brefeldin A. Cells were surfaced stained with CD45, CD3, CD4, CD8, CD44, CD62L (for naïve, effector and central memory), CD25 and FoxP3 (for Tregs) and analyzed via Flow cytometry. A Mann-Whitney non-parametric t-test was used to compare control vs other groups (*p<0.05, n=2-5). […] Representative images for each dataset are shown. TNFI values for EOMES, TBET and Ki67 measured using Image) to select the nucleus minus background. Graphs represent the % change of expression relative to control group for CD8^+ T-cells. (n>20 individual cells, Group A=Control, Group C: PD1 (10 mg/kg), Group D: Phenelzine (40 mg/kg), Group F: PD1+Phenelzine). C. Cells stimulated with PMA/ionomycin for 4 hours in the presence of Brefeldin A. Cell were surfaced stained with CD45, CD3, CD4, CD8 and intracellular staining of IFN-γ, IL-2 and TNF-α in the presence of Brefeldin A and analyzed via flow cytometry. A Mann-Whitney non-parametric t-test was used to compare control vs other groups (*p<0.05, **p<0.008; n=2-5). […] Representative images for each dataset are shown. TNFI values for TNFα and IFNγ measured using ImageJ to select the nucleus minus background. Graphs represent the % change of expression relative to control group for CD8^+ T-cells. […]
as §1, with “(PBS).” for “(PBS). Treatments were started on mice after 15 days post-inoculation of 4T1 cells.”

LSD1 and EOMES = biological target: T1, LSD1 and EOMES (Mus musculus, UniProt Q6ZQ88); assay: Immunofluorescence co-expression and co-localization of LSD1 and EOMES in CD8+ T-cells; type: in vivo
T1 construct: CD8^+ T-cells isolated from the 4T1 metastatic xenograft mouse model; endogenous in cells; host or cells: CD8+ T-cells isolated from the tumour micro-environment of treated 4T1 mice
Description: FIG. 6 is a graphical and photographic representation depicting nuclear LSD1 complexes with EOMES in exhausted T-cell signatures. A. Nanostring transcript analysis was performed on isolated CD8^+ T-cells isolated from a 4T1 metastatic cancer mouse model treated with either Group A=Control, Group C: PD1 (10 mg/kg), Group D: Phenelzine (40 mg/kg), or Group F: PD1+Phenelzine. […] B. Immunofluorescence microscopy was performed on CD8^+ T-cells fixed and probed with primary anti-LSD1, anti-EOMES and anti-CD8 antibodies and DAPI. Representative images for each dataset are shown. […] C. […] Plot-profiles were plotted with the use of ImageJ software measuring a series of fluorescent intensities along a line spanning the nucleus. The pattern of the two plots can give an insight into the nature of the relationship between the two fluorochromes. Imagej software with automatic thresholding and manual selection ? for nucleus of cells was used to calculate the Pearson's co ? (PCC) for each pair of antibodies. The PCC Values range from −1=inverse of co-localization, 0=no co-localization, +1=perfect co-localization.
To unravel this role, the present inventors examined the co-expression of LSD1 and EOMES (an exhaustion marker) in CD8^+ T-cells isolated from the 4T1 metastatic xenograft mouse model.
This negative co-localization was unaffected by treatment with PD1 or LSD1 inhibitors (FIG. 7).
as §1

## NNCCc1ccccc1 (racemic) [phenelzine sulfate, (±)-2-phenylethylhydrazine]
[1]
  M1 phenotype (CD38 expression and LSD1p inhibition): most strongly enhanced
  tumor associated M2 profile (CD206 and LSD1p expression): re-programmed and inhibited
EOMES, TBET and Ki67
  EOMES expression: strongly inhibit
  Ki67 expression: more strongly
  TBET expression: more strongly
LSD1 and EOMES; CD8+ T-cells, nuclear TNFI
  EOMES expression: marked inhibition
  LSD1 expression: marked inhibition
LSD1 and EOMES; nucleus of exhausted CD8+ T-cells
  LSD1/EOMES nuclear protein complex (co-localization, plot-profiles and PCC): markedly inhibited

— patent US20210186905A1, “ENHANCING T-CELL FUNCTION AND TREATING A T-CELL DYSFUNCTIONAL DISORDER WITH A COMBINATION OF AN LSD INHIBITOR AND A PD-1 BINDING ANTAGONIST” (EpiAxis Therapeutic Pty Ltd, priority 2017, published 2021)
